Measurements from PubChem BioAssay AID1648 (Sanford-Burnham Center for Chemical Genomics, 2009).
Calls of active or inactive are those of the source. No rule for the calls is given here.

What follows are compounds tested against Serine/threonine-protein kinase mTOR (Homo sapiens) (UniProt P42345) (assay: mTOR FRB domain ligand binding – biophysical, NMR (AID 1648)). Conditions: NMR binding to FRB domain, chemical shift.
Serine/threonine-protein kinase mTOR (Homo sapiens), sequence (P42345 2015-2114): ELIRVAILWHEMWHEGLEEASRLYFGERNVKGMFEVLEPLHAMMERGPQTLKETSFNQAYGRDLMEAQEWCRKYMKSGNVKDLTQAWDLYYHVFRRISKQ
In the case of O=C(c1cccnc1Cl)N1CCOCC1, the Kd is reported as > 4 mM (inactive). In the case of CC(C)(C)C(=O)Nc1nnc(SCC(N)=O)s1, the Kd is reported as > 4 mM (inactive). Cc1nc2c(n1O)CCc1c-2no[n+]1[O-] was tested, and the Kd was > 4 mM (inactive). Cn1c(=O)c2[nH]c(Nc3ccccc3)nc2n(C)c1=O was tested, and the Kd was > 4 mM (inactive). For Cc1nc2nc(-c3ccco3)nn2c(C)c1Cl, the Kd was > 4 mM (inactive). In the case of O=c1[nH]cc(CN2CCOCC2)c(=O)[nH]1, the Kd is reported as > 4 mM (inactive). O=C(Nc1cccnc1)Nc1ccc2c(c1)OCO2 was tested, and the Kd was > 4 mM (inactive). In the case of CCc1ccccc1OCc1nnc(N)s1, the Kd is reported as > 4 mM (inactive). O=C1C2=C(SCCS2)C(=O)N1CCCO was tested, and the Kd was > 4 mM (inactive). With C=CC(=O)N1CC2CC(C1)c1cccc(=O)n1C2 (stereo not drawn) the Kd was > 4 mM (inactive). In the case of Cc1nc2ccc(NC(=O)N3CCOCC3)cc2s1, the Kd is reported as > 4 mM (inactive). With S=C(Nc1ccc2nccnc2c1)N1CCOCC1 the Kd was > 4 mM (inactive). With O=C(Nc1c[nH]c(=O)[nH]c1=O)c1ccccc1F the Kd was > 4 mM (inactive). For CON(C)C(=O)Nc1ccc(Cl)cc1, the Kd was > 4 mM (inactive). NCc1ccc(S(N)(=O)=O)cc1 was tested, and the Kd was > 4 mM (inactive). For CCOc1nc(C)ccc1-c1noc(-c2ccco2)n1, the Kd was > 4 mM (inactive). With Cc1c(CO)cnn1-c1ccccc1 the Kd was > 4 mM (inactive). With Nc1ccccc1OC(F)(F)F the Kd was > 4 mM (inactive). With Cc1cc(N(CN2CCCC2=O)C(=O)c2ccccc2)no1 the Kd was > 4 mM (inactive). With c1ccc2c(c1)CN1CCCC1=N2 the Kd was > 4 mM (inactive). With Cc1nn(C)c(Cl)c1S(=O)(=O)N1CCOCC1 the Kd was > 4 mM (inactive). In the case of COc1cc2c(cc1OC)[C@@H]1C(=O)c3ccc4oc(C(C)C)cc4c3O[C@@H]1CO2, the Kd is reported as > 4 mM (inactive). In the case of Cc1cc(C(=O)NCc2ccccc2Br)no1, the Kd is reported as > 4 mM (inactive). In the case of CN(C)c1oc(-c2ccccc2Cl)nc1C#N, the Kd is reported as > 4 mM (inactive). In the case of N#CCCn1c(=O)oc2ccccc21, the Kd is reported as > 4 mM (inactive). OCc1sccc1-n1cccc1 was tested, and the Kd was > 4 mM (inactive). With O=C1OC(N2CCOCC2)c2ccccc21 (stereo not drawn) the Kd was > 4 mM (inactive). With O=[n+]1cc(C2=CC=CCC2)n([O-])c2c1CCCCC2 the Kd was > 4 mM (inactive). With CCOC(=O)N1CCCC1c1cccnc1 (stereo not drawn) the Kd was > 4 mM (inactive). For c1cncc(-c2nnc(-c3cccnc3)nn2)c1, the Kd was > 4 mM (inactive). O=C1c2ccccc2C(=O)c2c1ccc(O)c2O was tested, and the Kd was > 4 mM (inactive). COc1ccc(-c2cc(=O)c3c(OC(C)=O)cc(OC(C)=O)cc3o2)cc1 was tested, and the Kd was > 4 mM (inactive). For NCc1csc(-c2cccs2)n1, the Kd was > 4 mM (inactive). In the case of Nc1cccc(C(=O)Nc2ccc(N)cc2Cl)c1, the Kd is reported as > 4 mM (inactive). For O=C(NCc1n[nH]c(=O)c2ccccc12)C1CC1, the Kd was > 4 mM (inactive). CCSc1nc(C)c(CC)c(C)c1C(N)=O was tested, and the Kd was > 4 mM (inactive). CCSc1nnc2[nH]c(=O)cc(C)n12 was tested, and the Kd was > 4 mM (inactive). With O=C(Nc1ccncc1)c1c(F)cccc1F the Kd was > 4 mM (inactive). In the case of Cc1cc(C(=O)Nc2sc(C)c(C)c2C#N)c(C)o1, the Kd is reported as > 4 mM (inactive). With Cn1c(=O)n(CC(=O)Nc2cccnc2)c2ccccc21 the Kd was > 4 mM (inactive). With Cc1cccc(NC(=O)CN2C(=O)CNC2=O)c1 the Kd was > 4 mM (inactive). With CCC1(CC)C(=O)NC(=O)N=C1N the Kd was > 4 mM (inactive). For CCC(=O)OC1[C@@H]2CC3=C4CC(=O)O[C@@H](c5ccoc5)[C@]4(C)CCC3C(C)(C2=O)[C@@H](CC(=O)OC)C1(C)C (stereo partly drawn), the Kd was > 4 mM (inactive). CCOC(=O)Cn1cnc2c1c(=O)[nH]c(=O)n2C was tested, and the Kd was > 4 mM (inactive). For CC1CN=C(Nc2ccccc2)S1 (stereo not drawn), the Kd was > 4 mM (inactive). For O=C(NCc1cccs1)c1nn2cccnc2c1Cl, the Kd was > 4 mM (inactive). For NS(=O)(=O)c1ccc(NC(=O)/C=C\C(=O)O)cc1, the Kd was > 4 mM (inactive). For Nc1cccc2nsnc12, the Kd was > 4 mM (inactive). In the case of Cc1ccc(SCc2nc(-c3ccncc3)no2)cc1, the Kd is reported as > 4 mM (inactive). For Cc1ccc(C)n1/N=C1\NC(=O)CS1, the Kd was > 4 mM (inactive). With CCn1nccc1C(=O)Nc1ccc(Cl)cc1Cl the Kd was > 4 mM (inactive). For Nc1cc(=O)[nH]c(SCC(=O)NCc2ccccc2)n1, the Kd was > 4 mM (inactive). For CC(C)CCCC(C)C1CCC2C3CC(=O)[C@H]4C[C@@H](O)CC[C@]4(C)C3CC[C@]12C (stereo partly drawn), the Kd was > 4 mM (inactive). COc1cc(C(=S)N2CCCC2)cc(Cl)c1O was tested, and the Kd was > 4 mM (inactive). With NC(=O)CSc1ccc(-c2ccco2)nn1 the Kd was > 4 mM (inactive). In the case of O=C1CCCCCN1CO, the Kd is reported as > 4 mM (inactive). For COc1cc2c(c(OC)c1OC)-c1ccc(OC)c(=O)cc1[C@@H](NC(C)=O)CC2, the Kd was > 4 mM (inactive). For NC(=O)COc1ccccc1O, the Kd was > 4 mM (inactive). With NCc1cccc2c1OCCO2 the Kd was > 4 mM (inactive). For Nc1cccc(F)c1-c1ncon1, the Kd was > 4 mM (inactive). Cc1n[nH]c(C)c1CN was tested, and the Kd was > 4 mM (inactive). Cn1c(=O)n(-c2cccc(Cl)c2)c(=O)n1C was tested, and the Kd was > 4 mM (inactive). With Cc1cc(C(=O)NN2CCOCC2)c(C)o1 the Kd was > 4 mM (inactive). With Cc1ccc(CN2C3=NC(=O)CN3c3ccccc32)cc1 the Kd was > 4 mM (inactive). In the case of Cc1occc1C(=O)Nc1ccc2c(c1)OCO2, the Kd is reported as > 4 mM (inactive). For CC1(C)C(=O)C=C[C@@]2(C)C1C=C[C@]1(C)C2CC[C@@]2(C)[C@H](c3ccoc3)OC(=O)C3OC321 (stereo partly drawn), the Kd was > 4 mM (inactive). For Cc1cc(O)cc(O)c1C(=O)O, the Kd was > 4 mM (inactive). With O=C1CC(NCc2ccco2)C(=O)NN1 (stereo not drawn) the Kd was > 4 mM (inactive). Nc1nc(O)c(C2=c3cc(Cl)ccc3=NC2=O)s1 was tested, and the Kd was > 4 mM (inactive). NC(=O)Cn1cnc2c(cnn2-c2ccccc2)c1=O was tested, and the Kd was > 4 mM (inactive). With CSc1ccccc1NC(=O)c1ccoc1C the Kd was > 4 mM (inactive). With COc1cccc(/C=C/C(=O)O)c1C(C)C the Kd was > 4 mM (inactive). Oc1cccc(N2CCOCC2)c1 was tested, and the Kd was > 4 mM (inactive). For O=C(O)c1[nH]nc2c1COc1ccccc1-2, the Kd was > 4 mM (inactive). With CC(C)=CC1C(CO)C1(C)C (stereo not drawn) the Kd was > 4 mM (inactive). In the case of C[C@@H]1C(=O)O[C@H]2[C@H]1CC[C@@]1(C)C=CC(=O)[C@@]3(C)O[C@@]213, the Kd is reported as > 4 mM (inactive). NC(=O)CSc1ccc2nnc(-c3cccs3)n2n1 was tested, and the Kd was > 4 mM (inactive). In the case of C=C[C@@](C)(O)CCC1C(=C)CCC2[C@@](C)(CO)CCC[C@]12C (stereo partly drawn), the Kd is reported as > 4 mM (inactive). In the case of COc1ccc(Cl)cc1-c1n[nH]c(=S)n1C, the Kd is reported as > 4 mM (inactive). For Cc1ccc(-c2nn(C)c(=O)c3ccccc23)cc1CO, the Kd was > 4 mM (inactive). In the case of COc1nc(C)ccc1-c1noc(-c2ccncc2)n1, the Kd is reported as > 4 mM (inactive). With Clc1ccccc1OCCn1ccnc1 the Kd was > 4 mM (inactive). With Cc1cc(C(F)(F)F)n2nc(C(=O)O)c(Cl)c2n1 the Kd was > 4 mM (inactive). In the case of O=[N+]([O-])c1ccc(/C=N/c2ncn[nH]2)cc1, the Kd is reported as > 4 mM (inactive). C=CCSc1[nH]c(=O)cc(C)c1C(N)=O was tested, and the Kd was > 4 mM (inactive). With O=C(O)c1cccc(-n2cccc2)c1 the Kd was > 4 mM (inactive). In the case of Cc1ccc(C(=O)NC2=NCCS2)o1, the Kd is reported as > 4 mM (inactive). With O=C1NCCCC1C(=O)N1CCCCC1 (stereo not drawn) the Kd was > 4 mM (inactive).
